The source of these data is article PMC9124818 (Pharmacology Research & Perspectives, 2022).

In one data set the target is CYP2C19 (Homo sapiens, UniProt P33261). The data set is described as follows: Direct CYP450 inhibition in human liver microsomes (S-mephenytoin 4'-hydroxylation). The settings on record: for Inhibition (%): FFA up to 60 µM, nFFA up to 100 µM; for Basic model: R1: R1 = 1 + (Imax,u/Ki,u).
The target of the next data set is T1, BCRP (Homo sapiens, UniProt Q9UNQ0).
T1 construct: host or cells: MDCKII
T1 sequence (Q9UNQ0 1-655): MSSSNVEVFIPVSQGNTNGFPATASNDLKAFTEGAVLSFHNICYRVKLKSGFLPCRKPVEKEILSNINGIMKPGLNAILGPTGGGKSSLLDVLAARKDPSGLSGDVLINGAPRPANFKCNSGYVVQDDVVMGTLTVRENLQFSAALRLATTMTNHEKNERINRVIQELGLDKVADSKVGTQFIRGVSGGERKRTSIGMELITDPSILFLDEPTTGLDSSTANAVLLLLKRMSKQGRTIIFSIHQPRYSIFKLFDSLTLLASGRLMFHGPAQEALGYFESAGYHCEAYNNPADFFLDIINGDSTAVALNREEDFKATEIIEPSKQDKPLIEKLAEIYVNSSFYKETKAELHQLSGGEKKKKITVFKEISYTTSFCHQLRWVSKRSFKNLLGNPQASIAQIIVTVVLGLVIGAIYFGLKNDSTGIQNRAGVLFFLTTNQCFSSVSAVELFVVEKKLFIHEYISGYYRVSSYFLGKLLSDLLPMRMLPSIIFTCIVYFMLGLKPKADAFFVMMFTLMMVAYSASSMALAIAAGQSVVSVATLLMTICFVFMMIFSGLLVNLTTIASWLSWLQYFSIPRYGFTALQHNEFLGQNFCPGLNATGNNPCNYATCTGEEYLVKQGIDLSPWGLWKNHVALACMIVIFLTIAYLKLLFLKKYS
Kind of data set: Transporter inhibition, bidirectional permeability of prazosin in MDCKII-BCRP cells. The class given is in vitro ADME. As to the method:
(§1) The test compound (FFA or nFFA) or the positive control substrate ([…], respectively) was added to the donor chamber. […] Cells were then washed, lysed with scintillation cocktail, and analyzed for the probe substrate with a MicroBeta scintillation counter (PerkinElmer, Hopkinton, MA). Transcellular transporter assay conditions are described in Supplemental Table 1. Calculation of IC50 values was based on bidirectional permeability of probe substrate with and without the inhibitor in MDCKII cells expressing BCRP and in Caco‐2 cells expressing P‐gp, and transporter‐dependent uptake of probe substrate in HEK293 cells expressing all other transporters (Supplemental Table 1).
The net flux for human epithelial colorectal adenocarcinoma cells (Caco-2; P-gp) and MDCKII-BCRP inhibition determination was calculated according to the equation: […]

Another data set relates to CYP450 enzymes. The data set is described as follows: Time- and metabolism-dependent CYP450 inhibition in human liver microsomes. The class given is in vitro ADME. The settings on record: compared to direct inhibition. In general terms: Microsomes from liver hold many membrane-bound enzymes, among them those of drug oxidation.
For a further data set, the target named is T2, OAT1 (Homo sapiens, UniProt Q4U2R8).
T2 construct: host or cells: HEK293
T2 sequence (Q4U2R8 1-563): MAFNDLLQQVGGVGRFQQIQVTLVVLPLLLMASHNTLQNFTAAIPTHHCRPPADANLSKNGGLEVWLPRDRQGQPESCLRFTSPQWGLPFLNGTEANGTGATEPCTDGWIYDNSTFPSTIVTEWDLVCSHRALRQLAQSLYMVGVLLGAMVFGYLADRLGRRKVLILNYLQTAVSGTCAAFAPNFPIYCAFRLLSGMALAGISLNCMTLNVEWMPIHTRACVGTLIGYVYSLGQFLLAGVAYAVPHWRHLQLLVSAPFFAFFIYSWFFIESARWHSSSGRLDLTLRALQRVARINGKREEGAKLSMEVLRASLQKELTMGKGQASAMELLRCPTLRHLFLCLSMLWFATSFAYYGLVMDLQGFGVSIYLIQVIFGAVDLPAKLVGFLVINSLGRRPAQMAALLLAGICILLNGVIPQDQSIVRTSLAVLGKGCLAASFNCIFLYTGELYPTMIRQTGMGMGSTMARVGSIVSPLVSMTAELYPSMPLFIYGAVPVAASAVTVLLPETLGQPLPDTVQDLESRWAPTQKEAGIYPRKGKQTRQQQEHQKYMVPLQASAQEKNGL
The data set is described as follows: Transporter inhibition, uptake of [3H]-p-aminohippurate in HEK293 cells. The class given is in vitro ADME. The protocol:
as §1
The transporter-specific uptake of the probe substrate in cells was determined by subtracting the accumulation in the control cells from the accumulation in the transporter-expressing cells.

In the next data set the test system is CYP3A4 mRNA. The data set is described as follows: in vitro. The settings on record: for EC50 / Basic kinetic model: Emax (fold): ± standard error; for Fold‐change method: Fold change: highest dose tested (40 µM fenfluramine, 50 µM norfenfluramine); for Fold‐change method: % of control: percent of positive control induction of mRNA; for Basic kinetic model: Emax (fold): fit of fold‐change −1 values. The protocol:
Cells were then harvested to isolate RNA, which was analyzed by quantitative reverse transcription‐polymerase chain reaction (qRT‐PCR) for induction of CYP1A2, CYP2B6, and CYP3A4 mRNA levels. Total RNA was phase extracted with TRIzol followed by purification with an RNeasy Mini Kit (Qiagen Inc., Germantown, MD). Quantitative PCR was performed in triplicate with a 7900HT Fast Real Time PCR System, an Applied Biosystems Universal Master Mix, and TaqMan® Gene Expression Assays. The quantity of target cDNA relative to control cDNA (GAPDH) was determined by the ΔΔCT method (Applied Biosystems User Bulletin #2). Relative quantitation measures the change in mRNA expression in a test sample relative to that in the control sample (i.e., DMSO). This method assumes that the efficiency of target amplification and the efficiency of endogenous control amplification are approximately equal.
mRNA assessment was conducted using a quantitative reverse transcription-polymerase chain reaction (qRT-PCR) according to the Applied Biosystems protocol. Each PCR was performed in triplicate. A Primer Mix was prepared for each Gene Expression assay. A typical Primer Mix contained TaqMan Fast Advanced Master Mix (1X), Gene Expression Assay (1X, 900 nM forward and reverse primers) and ribonuclease (RNase)-free water. The Reaction Mix was prepared by adding the Primer Mix to cDNA. A percentage of samples (no less than 10%) included NACs. […] The relative quantity of the target cDNA compared with that of the control cDNA (GAPDH) was determined by the ΔΔCt method (Applied Biosystems User Bulletin #2). Relative quantitation measures the change in mRNA expression in a test sample relative to that in a control sample (eg, dimethyl sulfoxide [DMSO]). This method assumes that the efficiency of the target amplification and the efficiency of the endogenous control amplification are approximately equal.
This software analyzes relative gene expression using the comparative Ct method (ΔΔCt), which relates the PCR signal of the target transcript to the PCR signal of the target in an untreated control. Both the treated sample and the untreated control signals are normalized to the endogenous control (GAPDH), for which expression is not affected by treatment and expression is constant throughout the tissue being tested.
The level of mRNA expression relative to the positive control was calculated as follows: […]

[1] abbreviates: direct inhibition, substrate S-mephenytoin.

A word on the IC50: it is the midpoint of a concentration-inhibition curve. The term EC50 denotes the concentration giving half of the maximal effect.

Read-outs that look alike come from different tables or passages of the source.

Sequence of CYP2C19 (P33261 whole entry): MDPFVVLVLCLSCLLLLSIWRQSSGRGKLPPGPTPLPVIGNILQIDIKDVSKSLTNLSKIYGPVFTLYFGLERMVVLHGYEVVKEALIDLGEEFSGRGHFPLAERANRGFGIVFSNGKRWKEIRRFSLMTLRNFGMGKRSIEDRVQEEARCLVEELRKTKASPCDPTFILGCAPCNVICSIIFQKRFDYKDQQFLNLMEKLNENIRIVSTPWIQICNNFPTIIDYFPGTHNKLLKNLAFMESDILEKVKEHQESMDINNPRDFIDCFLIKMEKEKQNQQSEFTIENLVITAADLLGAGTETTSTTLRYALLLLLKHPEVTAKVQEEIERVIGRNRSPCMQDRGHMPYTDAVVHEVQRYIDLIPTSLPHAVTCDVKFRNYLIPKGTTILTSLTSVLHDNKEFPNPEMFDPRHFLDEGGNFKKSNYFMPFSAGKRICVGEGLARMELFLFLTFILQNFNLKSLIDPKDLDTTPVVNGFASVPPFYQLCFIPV
Excerpt for CYP2C19: A mixed‐gender pool of 200 individual human liver microsomal samples was used.
This LIMS utilizes the Levenberg-Marquardt algorithm to perform nonlinear regression fitting of the data to the following 4-parameter sigmoidal-logistic IC50 equation:
As percent of control values are utilized, the Min is set to 0 and the Max is set to 100 (or other values, as appropriate). […] Therefore, when an IC50 value falls outside the concentration range studied, the IC50 values are reported to be greater than the highest concentrations of test article evaluated.

With `CCNC(C)Cc1cccc(C(F)(F)F)c1` (racemic) [FFA, (RS)‐ethyl(α‐methyl‐3‐trifluoromethylphenethyl)amine, reference compound], the results for the IC50 against CYP2C19, against BCRP and at OAT1 were over 60 µM, over 100 µM and over 30 µM, respectively. Also, at CYP2C19 (setting [1]), the “Inhibition (%)” value was 14%. Also, on CYP2C19 (substrate S-mephenytoin), the “Basic model: Potential for clinical inhibition” value is reported as “No (Potential to inhibit if R1 ≥ 1.02)”. At CYP2C19 (substrate S-mephenytoin), the “Static mechanistic model: Potential for clinical inhibition” value was “No (Potential to inhibit if AUCR ≥ 1.25)”. Also, the “Basic model: R1” value on CYP2C19 (substrate S-mephenytoin) was found to be 1.01. In addition, in the data set with CYP450 enzymes, the “time- or metabolism-dependent inhibition of CYP450 enzyme activity” value was “did not have any additional inhibitory effects”. The “Static mechanistic model: Potential to induce” value in the data set with CYP3A4 mRNA is listed as “No (key: Yes: AUCR <0.8 to denote induction; No: AUCR <0.8 to denote induction)”. The EC50 was determined as 8.53 ± 4.3 µM in the data set with CYP3A4 mRNA (human, Basic kinetic model: EC50, hepatocytes HC7‐8); 20.4 ± 1.9 µM in the data set with CYP3A4 mRNA (human, Basic kinetic model: EC50, hepatocytes HC10‐8); 9.05 ± 3.6 µM in the data set on CYP3A4 mRNA (human, Basic kinetic model: EC50, hepatocytes HC10‐10). Further, in the data set on CYP3A4 mRNA (human, hepatocytes), the “CYP3A4 induction (abstract)” value is recorded as 1.9-3.0 fold.

Turning to `CC(N)Cc1cccc(C(F)(F)F)c1.Cl` (stereo not drawn) [nFFA, [1‐(3‐trifluoromethyl)phenyl]propan‐2‐amine hydrochloride], the IC50 against CYP2C19 (direct inhibition, human liver microsomes, substrate S-mephenytoin) is over 100 µM. The “Inhibition (%)” value on CYP2C19 (setting [1]) is given as 2.9%. Moreover, on CYP2C19 (substrate S-mephenytoin), the “Basic model: Potential for clinical inhibition” value is reported as “No (Potential to inhibit if R1 ≥ 1.02)”, the “Static mechanistic model: Potential for clinical inhibition” value is recorded as “No (Potential to inhibit if AUCR ≥ 1.25)” and the “Basic model: R1” value is listed as 1.00. Besides, the IC50 at BCRP (MDCKII, probe prazosin 1 µM, read-out: IC50) was over 50 µM. Moreover, the “time- or metabolism-dependent inhibition of CYP450 enzyme activity” value with CYP450 enzymes was “did not have any additional inhibitory effects”. At OAT1 (HEK293, probe [3H]-p-aminohippurate 1 μM, read-out: IC50), the IC50 was over 50 µM. For the same molecule, in the data set on CYP3A4 mRNA (hepatocytes HC7‐8), the “Basic kinetic model: Potential to induce” value is given as “Yes”, the “Basic kinetic model: R3” value is recorded as 0.79, the “Fold‐change method: Potential to induce” value is recorded as “Yes” and the “Static mechanistic model: Potential to induce” value is “No (AUCR <0.8 to denote induction)”. Further, in the data set with CYP3A4 mRNA (hepatocytes HC7‐8), the “Fold‐change method: Fold change” value is listed as 4.91 fold, the “Fold‐change method: % of control” value was determined as 3.68% and the “Basic kinetic model: Emax (fold)” value stood at 3.92 ± 0.048 fold. Further, in the data set with CYP3A4 mRNA (hepatocytes HC10‐8), the “Basic kinetic model: Potential to induce” value is reported as “No”, the “Basic kinetic model: R3” value is reported as 0.86, the “Fold‐change method: Potential to induce” value was “Yes” and the “Static mechanistic model: Potential to induce” value is “No (AUCR <0.8 to denote induction)”. In addition, in the data set with CYP3A4 mRNA (hepatocytes HC10‐8), the “Fold‐change method: Fold change” value is 5.75 fold, the “Fold‐change method: % of control” value is 15.30% and the “Basic kinetic model: Emax (fold)” value came to 6.95 ± 1.0 fold. Besides, in the data set with CYP3A4 mRNA (hepatocytes HC10‐10), the “Basic kinetic model: Potential to induce” value is reported as “No”, the “Basic kinetic model: R3” value is given as 0.84, the “Fold‐change method: Potential to induce” value is on record as “Yes” and the “Static mechanistic model: Potential to induce” value is reported as “No (AUCR <0.8 to denote induction)”. In the data set with CYP3A4 mRNA (hepatocytes HC10‐10), the “Fold‐change method: Fold change” value is given as 4.57 fold, the “Fold‐change method: % of control” value is recorded as 4.85% and the “Basic kinetic model: Emax (fold)” value is given as 3.61 ± 0.40 fold. Besides, the EC50 in the data set with CYP3A4 mRNA (read-out: Basic kinetic model: EC50, hepatocytes HC7‐8) turned out to be 12.9 ± 0.38 µM. Also, in the data set on CYP3A4 mRNA (read-out: Basic kinetic model: EC50, hepatocytes HC10‐8), the EC50 was determined as 37.8 ± 5.6 µM. The EC50 with CYP3A4 mRNA (read-out: Basic kinetic model: EC50, hepatocytes HC10‐10) turned out to be 17.1 ± 3.9 µM.
